Results: article PMC6213020, “Identification of a Novel PPAR-γ Agonist through a Scaffold Tuning Approach” (International Journal of Molecular Sciences, 2018)
Like-named read-outs stand apart in the source and are kept apart here.

Key:
[1] = target: T1, PPAR-γ (Homo sapiens, UniProt P37231); assay: TR-FRET LanthaScreen PPAR coactivator recruit assay, PPAR-γ (TRAP220/DRIP2 peptide); format: biochemical; settings: for EC50: TR-FRET coactivator recruit assay
T1 construct: purchased Invitrogen / Thermo Fisher Scientific (assay service)
T1 sequence (P37231 238-503 limits assumed): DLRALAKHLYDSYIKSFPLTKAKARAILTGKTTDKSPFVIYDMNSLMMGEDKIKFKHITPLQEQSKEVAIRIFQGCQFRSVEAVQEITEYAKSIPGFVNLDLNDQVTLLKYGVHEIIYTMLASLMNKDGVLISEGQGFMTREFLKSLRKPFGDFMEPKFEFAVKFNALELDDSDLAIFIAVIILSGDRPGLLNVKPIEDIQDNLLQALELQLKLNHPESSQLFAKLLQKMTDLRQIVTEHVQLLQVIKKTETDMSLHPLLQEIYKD
Text: Binding of agonist to the PPAR LBD causes a conformational change around helix 12 in the LBD, resulting in higher affinity for the coactivator peptide. When the terbium label on the anti-GST antibody complexed with PPAR is excited at 340 nm, energy is transferred to the fluorescein label on the coactivator peptide and detected as emission at 520 nm. […] Based on the biology of the PPAR-coactivator peptide interaction, this ligand EC50 is a composite value representing the amount of ligand required to bind to receptor, effect a conformational change, and recruit coactivator peptide. Potency of compounds show similar order to their activity (Table 3). […] Ligands such as TZDs show little or no binding to PPAR-δ. Compound 11 and 15 have ortho or meta substituted benzoic acid as an acidic head group. Their acidic head groups might seem to be too large to fit within the narrow PPAR-δ pocket. In contrast, the compound 1 and 2 contains an acetic acid head group that complements the narrow PPAR-δ ligand binding. […] The potency and selectivity of compound 11 could be explained by harmonization of steric effect of acidic head group, length and rigidity of hydrophobic tail, and properly tuned aromatic linker system.
EC50 of compounds were determined by recruitment of transcriptional coactivators using the TR-FRET based Lanthascreen coactivator assays (Invitrogen, Carlsbad, CA, USA). Which was serviced by Thermo Fisher Scientific (Medicon, WI, USA) according to the LanthaScreen TR-FRET coregulator protocol and assay conditions. Coregulator peptide PGC1a, TRAP220/DRIP2 and C33 was used for the coactivator recruit assay of PPAR-α, -γ, and -δ, respectively.

[2] = target: T2, PPAR-α (Homo sapiens, UniProt Q07869); assay: cell-based PPAR transactivation (luciferase) assay, PPAR-α; settings: 24 h; compounds 10 µM; relative to maximum activation with GW7647 (10 µM); PPAR-Luc in CV-1 cells; read-out: % max PPAR-α
T2 construct: host or cells: CV-1
T2 sequence (Q07869 1-468): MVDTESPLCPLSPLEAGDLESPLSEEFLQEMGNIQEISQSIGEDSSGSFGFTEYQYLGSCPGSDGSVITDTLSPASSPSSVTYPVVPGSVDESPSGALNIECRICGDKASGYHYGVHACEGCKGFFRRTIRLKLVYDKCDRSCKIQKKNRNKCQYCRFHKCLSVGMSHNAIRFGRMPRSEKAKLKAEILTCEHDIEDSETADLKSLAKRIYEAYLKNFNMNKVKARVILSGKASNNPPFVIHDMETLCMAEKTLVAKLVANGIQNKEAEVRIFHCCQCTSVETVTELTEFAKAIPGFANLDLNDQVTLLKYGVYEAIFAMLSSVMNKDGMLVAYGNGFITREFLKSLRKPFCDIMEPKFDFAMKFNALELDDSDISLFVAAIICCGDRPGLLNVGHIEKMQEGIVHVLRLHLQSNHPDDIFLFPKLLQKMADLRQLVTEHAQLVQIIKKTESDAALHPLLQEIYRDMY
Description: The PPAR activities of the synthesized dichloroanilide-linked indole analogs were assessed using a standard cell-based transactivation assay in CV-1 cells. GW7647 [42], pioglitazone, and GW0742 [43] were used as positive controls for PPAR-α, -γ, and -δ, respectively. These three positive controls presented the maximum activation for each PPAR subtype. The activity of the compounds was presented as the activation percentage (%) relative to the maximum values of the positive controls at the indicated concentrations.
Transient transfection and luciferase assay was carried out. CV-1 cells were seeded in 48-well plates at a density of 1.5 × 10^5 cells/well in Dulbecco’s modified Eagle’s medium (DMEM) with containing 10% fetal bovine serum (FBS). The cells were transiently transfected with plasmid mixtures containing PPAR-α/γ expression vector and tk-PPRE-luciferase (Luc) vector for 6 h and then treated with the samples for 24 h. HEK293t cells were seeded in a 60-mm dish at a density of 1.5 × 10^6 cells/dish. After transfection with the plasmid mixtures containing PPAR-δ expression vector and Luc vector for 6 h, the cells were transferred to a 96-well plate and treated with the samples. To normalize the transfection efficiency, a β-galactosidase plasmid was cotransfected. The luciferase activity in the cell lysates was measured using a luciferase assay system (Promega Corp., Madison, WI, USA), and the β-galactosidase activity was determined by measuring the absorbance at 410 nm using an ELISA plate reader. The data were expressed as the relative luciferase activity divided by the β-galactosidase activity. All constructs were kindly gifted by Dr. Ronald M. Evans at The Salk Institute (La Jolla, CA, USA).

| EC50 ([1]; read-out: EC50 PPAR-γ) [nM] | selectivity for PPAR-γ to PPAR-α ([1]; from coactivator recruit EC50) | selectivity for PPAR-γ to PPAR-δ ([1]; from coactivator recruit EC50) | activation at 10 µM [2] [%] | EC50 ([1]; read-out: EC50 to PPAR-γ) [nM] | SMILES |
| --- | --- | --- | --- | --- | --- |
| 1.96 | 1,970 fold | 16,600 fold | 105.1 ± 0.41 |  | O=C(COc1ccc2c(ccn2Cc2ccccc2C(=O)O)c1)Nc1ccc(Cl)cc1Cl [Compound 12, 2-((5-(2-((2,4-Dichlorophenyl)amino)-2-oxoethoxy)-1H-indol-1-yl)methyl)benzoic acid] |
| 571 |  |  | 51.84 ± 0.25 |  | O=C(COc1ccc2ccn(Cc3ccccc3C(=O)O)c2c1)Nc1ccc(Cl)cc1Cl [Compound 13, 2-((6-(2-((2,4-Dichlorophenyl)amino)-2-oxoethoxy)-1H-indol-1-yl)methyl)benzoic acid] |
| 32.6 |  |  | 78.15 ± 0.04 | 32.3 | O=C(COc1ccc2ccn(Cc3cccc(C(=O)O)c3)c2c1)Nc1ccc(Cl)cc1Cl [Compound 15, 3-((6-(2-((2,4-Dichlorophenyl)amino)-2-oxoethoxy)-1H-indol-1-yl)methyl)benzoic acid] |
| > 11100 |  |  | 23.79 ± 0.11 |  | O=C(COc1ccc2c(c1)c(Cc1ccccc1)cn2Cc1ccccc1C(=O)O)Nc1ccc(Cl)cc1Cl [Compound 18, 2-((3-Benzyl-5-(2-((2,4-dichlorophenyl)amino)-2-oxoethoxy)-1H-indol-1-yl)methyl)benzoic acid] |
